# Results reported in PubChem BioAssay (NCI).
# Where “and” joins values, the source holds several entries; their conditions need not be identical. Equal values may be shown once.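 48-hour exposure; five concentrations; linearly interpolated endpoints. The concentration for 50% growth inhibition is given as GI50. TGI denotes the concentration required for complete inhibition of growth.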
# What was measured:
# Assay in all cases: NCI anticancer screen, dose series, 48 h
# CCRF-CEM leukemia = tested on: CCRF-CEM leukemia
# DU-145 prostate = tested on: DU-145 prostate
# HT29 colon = tested on: HT29 colon
# MCF7 breast = tested on: MCF7 breast
# NCI/ADR-RES ovarian = tested on: NCI/ADR-RES ovarian
# OVCAR-4 ovarian = tested on: OVCAR-4 ovarian
# OVCAR-8 ovarian = tested on: OVCAR-8 ovarian
# RPMI-8226 leukemia = tested on: RPMI-8226 leukemia
# SK-MEL-2 melanoma = tested on: SK-MEL-2 melanoma
# SW-620 colon = tested on: SW-620 colon
# UACC-257 melanoma = tested on: UACC-257 melanoma
# UACC-62 melanoma = tested on: UACC-62 melanoma
# K-562 leukemia = tested on: K-562 leukemia
# SF-539 CNS = tested on: SF-539 CNS
SMILES,TGI (CCRF-CEM leukemia) [µM],TGI (DU-145 prostate) [µM],TGI (HT29 colon) [µM],TGI (MCF7 breast) [µM],TGI (NCI/ADR-RES ovarian) [µM],TGI (OVCAR-4 ovarian) [µM],TGI (OVCAR-8 ovarian) [µM],TGI (RPMI-8226 leukemia) [µM],TGI (SK-MEL-2 melanoma) [µM],TGI (SW-620 colon) [µM],TGI (UACC-257 melanoma) [µM],TGI (UACC-62 melanoma) [µM],TGI (K-562 leukemia) [µM],TGI (SF-539 CNS),GI50 (OVCAR-4 ovarian),GI50 (RPMI-8226 leukemia),GI50 (SF-539 CNS),GI50 (UACC-62 melanoma)
COc1ncc(C#CC(=O)c2ccccc2)c(OC)n1,2.07,19.7,5.07,1.96,7.73,12.9,8.72,> 21.9,13.4,4.84,14.7,8.78,–,–,–,–,–,–
C(#C[C@@]12CCC[C@@H]1N(Cc1ccccc1)CO2)c1ccc2c(c1)OCO2,> 100,> 100,> 100,> 100,> 100,> 100,> 100,> 100,> 100,> 100,> 100,> 100,> 100,> 100 µM,–,–,–,–
COc1ccc(-c2nc(SC)n(C3OC(COC(C)=O)C(OC(C)=O)C(OC(C)=O)C3OC(C)=O)c(=O)c2C#N)cc1 (configuration not stated),> 100,> 100,> 100,> 100,> 100,> 100,> 100,> 100,> 100,> 100,> 100,> 100,> 100,81.9 µM and > 100 µM,29.3 µM and > 100 µM,47.4 µM and > 100 µM,31.3 µM and > 100 µM,40.5 µM and > 100 µM
N#CC1=C(S)N(C2OC(CO)C(O)C(O)C2O)C(c2ccccc2)=CC1c1cccs1 (configuration not stated),> 100,> 10,37.5,54.9,> 100,> 100,65.9,> 100,50.2,65,40.8,48.3,> 100,38.7 µM,–,–,–,–
CCOC1=NC(C(F)(F)F)(C(F)(F)F)N=C(N2CCCCC2)O1,> 100,> 100,> 100,> 100,> 100,> 100,> 100,> 100,> 100,> 100,> 100,> 100,> 100,> 100 µM,–,–,–,–
COc1ccc2c(c1)C(=O)[C@@](Nc1ccc(C=O)cc1)(OC)[C@@](OC)(c1ccc([N+](=O)[O-])cc1)O2,> 10,> 10,> 10,> 10,> 10,> 10,> 10,> 10,> 10,> 10,> 10,> 10,> 10,> 10 µM,–,–,–,–
Cc1ccc2c(=O)c(C(=O)NNC(=S)NC3CCCCC3)c[nH]c2n1,> 100,> 100,> 100,> 100,> 100,> 100,> 100,> 100,> 100,> 100,> 100,> 100,> 100,–,–,–,–,–
C=COC(=O)N1C2CCCC(Cl)(C(C)=O)C1CC2 (configuration not stated),> 100,> 100,> 100,> 100,> 100,> 100,> 100,> 100,> 100,> 100,> 100,> 100,> 100,–,–,–,–,–
CC1(C)CN=C(Nc2ccc(F)c(Cl)c2)S1,> 100,> 100,> 100,> 100,> 100,> 100,> 100,> 100,> 100,> 100,> 100,> 100,> 100,> 100 µM,–,–,–,–
CCOC(=O)c1csc(-c2nc(CCNC(=O)c3ccccc3)sc2Cl)n1,> 100,> 100,> 100,> 100,> 100,–,> 100,> 100,–,> 100,> 100,> 100,> 100,> 100 µM,–,–,–,–
CCOc1cc(/C=C2\N=C(c3ccccc3)N(c3nc4ccccc4s3)C2=O)ccc1O,> 100,> 100,> 100,> 100,67.8,> 100,> 100,65.4,62.1,> 100,> 100,–,> 100,> 100 µM,–,–,–,–
CC1(C)CC[C@]2(C(=O)O)CC[C@]3(C)C(=CC[C@@H]4[C@@]5(C)CC[C@H](OC6OC(CO)C(O)C(O)C6O)C(C)(C)[C@@H]5CC[C@]43C)[C@@H]2C1 (some centres not stated),6.36,4.49,2.98,3.91,22.9,3,3.12,6.08,3.15,3.51,3.13,3.28,3.67,–,–,–,–,–
Cc1ccc(N2C3=C(CC4=C2CC(C)(C)CC4=O)C(=O)CC(C)(C)C3)cc1,> 100,> 100,> 100,> 100,> 100,> 100,> 100,> 100,–,> 100,> 100,> 100,> 100,> 100 µM,–,–,–,–
O=C(NNC(=O)c1c(Cl)c(Cl)c(Cl)c(Cl)c1-c1nc2ccccc2[nH]1)c1ccc(Cl)cc1,67.9,> 100,> 100,> 100,> 100,> 100,> 100,98.5,> 100,> 100,–,> 100,> 100,> 100 µM,–,–,–,–
COc1ccc(NC(=S)Nc2c(C)n(C)n(-c3ccccc3)c2=O)cc1,> 100,> 100,> 100,> 100,> 100,–,> 100,> 100,–,> 100,> 100,> 100,> 100,> 100 µM,–,–,–,–
